Laboratory results published in the supplement of paper PMC10307832.

Tests used:
Assay in all cases: relative viability (nuclei count vs DMSO), 5 days (fraction); higher = more cells survive
[1] = system: HCC-15
How it was run: (§1)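 Lung cancer cell lines, seeded in 1536-well plates, were treated the following day by pin tool with a single drug or with five library-drug doses (not always all listed) in √10 steps on top of a fixed anchor-drug dose. Cells were fixed and nuclei stained in one step after 5 days, and nuclei were counted. Relative viability is the nuclei count for treated wells divided by that for vehicle wells, reported as medians of duplicate plates.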

[2] = system: NCI-H1793
How it was run: as §1

[3] = system: NCI-H838
How it was run: as §1

[4] = system: COR-L23
How it was run: as §1

[5] = system: NCI-H1993
How it was run: as §1

[6] = system: NCI-H1755
How it was run: as §1

[7] = system: NCI-H2170
How it was run: as §1

[8] = system: NCI-H2347
How it was run: as §1

[9] = system: NCI-H1355
How it was run: as §1

[10] = system: HARA
How it was run: as §1

[11] = system: NCI-H1792
How it was run: as §1

[12] = system: HOP-62
How it was run: as §1

[13] = system: SK-MES-1
How it was run: as §1

[14] = system: NCI-H647
How it was run: as §1

[15] = system: NCI-H358
How it was run: as §1

[16] = system: NCI-H522
How it was run: as §1

[17] = system: NCI-H1734
How it was run: as §1

[18] = system: NCI-H2009
How it was run: as §1

[19] = system: NCI-H2228
How it was run: as §1

[20] = system: UMC-11
How it was run: as §1

[21] = system: COR-L 105
How it was run: as §1

[22] = system: NCI-H1395
How it was run: as §1

SMILES: COc1nc(C)cnc1NS(=O)(=O)c1cccnc1-c1ccc(-c2nnco2)cc1 [Zibotentan] + Cc1nc(Nc2ncc(C(=O)Nc3c(C)cccc3Cl)s2)cc(N2CCN(CCO)CC2)n1 [Dasatinib] (partner 0.075 µM)
- relative viability ([1]; first compound 0.08 µM): 0.601
- relative viability ([1]; first compound 0.8 µM): 0.512
- relative viability ([1]; first compound 2.53 µM): 0.684
- relative viability ([2]; first compound 0.08 µM): 0.345
- relative viability ([2]; first compound 0.253 µM): 0.363
- relative viability ([2]; first compound 0.8 µM): 0.406
- relative viability ([2]; first compound 2.53 µM): 0.379
- relative viability ([3]; first compound 0.08 µM): 0.28
- relative viability ([3]; first compound 0.253 µM): 0.233
- relative viability ([3]; first compound 0.8 µM): 0.283
- relative viability ([3]; first compound 2.53 µM): 0.305
- relative viability ([4]; first compound 0.08 µM): 0.502
- relative viability ([4]; first compound 0.253 µM): 0.485
- relative viability ([4]; first compound 0.8 µM): 0.488
- relative viability ([4]; first compound 2.53 µM): 0.5
- relative viability ([5]; first compound 0.08 µM): 0.565
- relative viability ([5]; first compound 0.253 µM): 0.63
- relative viability ([5]; first compound 0.8 µM): 0.481
- relative viability ([5]; first compound 2.53 µM): 0.741
- relative viability ([6]; first compound 0.08 µM): 0.433
- relative viability ([6]; first compound 0.253 µM): 0.413
- relative viability ([6]; first compound 0.8 µM): 0.4
- relative viability ([6]; first compound 2.53 µM): 0.473
- relative viability ([7]; first compound 0.08 µM): 0.59
- relative viability ([7]; first compound 0.253 µM): 0.612
- relative viability ([7]; first compound 0.8 µM): 0.52
- relative viability ([7]; first compound 2.53 µM): 0.469
- relative viability ([8]; first compound 0.253 µM): 0.294
- relative viability ([8]; first compound 0.8 µM): 0.298
- relative viability ([8]; first compound 2.53 µM): 0.331
- relative viability ([9]; first compound 0.08 µM): 0.691
- relative viability ([9]; first compound 0.253 µM): 0.743
- relative viability ([9]; first compound 0.8 µM): 0.718
- relative viability ([9]; first compound 2.53 µM): 0.832
- relative viability ([10]; first compound 0.08 µM): 0.239
- relative viability ([10]; first compound 0.253 µM): 0.227
- relative viability ([10]; first compound 0.8 µM): 0.24
- relative viability ([10]; first compound 2.53 µM): 0.243
- relative viability ([11]; first compound 0.08 µM): 0.872
- relative viability ([11]; first compound 0.253 µM): 0.664
- relative viability ([11]; first compound 0.8 µM): 0.635
- relative viability ([11]; first compound 2.53 µM): 0.827
- relative viability ([12]; first compound 0.08 µM): 0.706
- relative viability ([12]; first compound 0.253 µM): 0.634
- relative viability ([12]; first compound 0.8 µM): 0.719
- relative viability ([12]; first compound 2.53 µM): 0.758
- relative viability ([13]; first compound 0.08 µM): 0.333
- relative viability ([13]; first compound 0.253 µM): 0.261
- relative viability ([13]; first compound 0.8 µM): 0.473
- relative viability ([13]; first compound 2.53 µM): 0.363
- relative viability ([14]; first compound 0.08 µM): 0.145
- relative viability ([14]; first compound 0.253 µM): 0.185
- relative viability ([14]; first compound 0.8 µM): 0.215
- relative viability ([14]; first compound 2.53 µM): 0.195
- relative viability ([15]; first compound 0.08 µM): 0.175
- relative viability ([15]; first compound 0.253 µM): 0.152
- relative viability ([15]; first compound 0.8 µM): 0.151
- relative viability ([15]; first compound 2.53 µM): 0.166
- relative viability ([16]; first compound 0.08 µM): 0.479
- relative viability ([16]; first compound 0.253 µM): 0.839
- relative viability ([16]; first compound 0.8 µM): 0.974
- relative viability ([16]; first compound 2.53 µM): 0.964
- relative viability ([17]; first compound 0.08 µM): 0.484
- relative viability ([17]; first compound 0.253 µM): 0.42
- relative viability ([17]; first compound 0.8 µM): 0.487
- relative viability ([17]; first compound 2.53 µM): 0.564
- relative viability ([18]; first compound 0.08 µM): 0.287
- relative viability ([18]; first compound 0.253 µM): 0.28
- relative viability ([18]; first compound 0.8 µM): 0.306
- relative viability ([18]; first compound 2.53 µM): 0.292
- relative viability ([19]; first compound 0.08 µM): 0.554
- relative viability ([19]; first compound 0.253 µM): 0.509
- relative viability ([19]; first compound 0.8 µM): 0.495
- relative viability ([19]; first compound 2.53 µM): 0.608
- relative viability ([20]; first compound 0.08 µM): 0.394
- relative viability ([20]; first compound 0.253 µM): 0.436
- relative viability ([20]; first compound 0.8 µM): 0.475
- relative viability ([20]; first compound 2.53 µM): 0.469
- relative viability ([21]; first compound 0.08 µM): 0.32
- relative viability ([21]; first compound 0.253 µM): 0.353
- relative viability ([21]; first compound 0.8 µM): 0.381
- relative viability ([21]; first compound 2.53 µM): 0.405
- relative viability ([22]; first compound 0.08 µM): 0.409
- relative viability ([22]; first compound 0.253 µM): 0.403
- relative viability ([22]; first compound 0.8 µM): 0.409
- relative viability ([22]; first compound 2.53 µM): 0.407
